According to patent US20060240048A1 (priority 2002, published 2006):

Target: T1, human cannabinoid CB2 receptor (Homo sapiens, UniProt P34972)
T1 construct: expressed in transfected cells; host or cells: Saccharomyces cerevisiae strain MMY23
Assay: Cannabinoid CB2 receptor agonist activity, yeast reporter assay (FDGlu fluorescence);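 on Emax: 100% equals maximal response of reference agonist HU210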
Type: cell-based
Conditions: for Emax: read-out: efficacy value (Emax) at the cloned human cannabinoid CB2 receptor

T1 sequence (P34972 whole entry): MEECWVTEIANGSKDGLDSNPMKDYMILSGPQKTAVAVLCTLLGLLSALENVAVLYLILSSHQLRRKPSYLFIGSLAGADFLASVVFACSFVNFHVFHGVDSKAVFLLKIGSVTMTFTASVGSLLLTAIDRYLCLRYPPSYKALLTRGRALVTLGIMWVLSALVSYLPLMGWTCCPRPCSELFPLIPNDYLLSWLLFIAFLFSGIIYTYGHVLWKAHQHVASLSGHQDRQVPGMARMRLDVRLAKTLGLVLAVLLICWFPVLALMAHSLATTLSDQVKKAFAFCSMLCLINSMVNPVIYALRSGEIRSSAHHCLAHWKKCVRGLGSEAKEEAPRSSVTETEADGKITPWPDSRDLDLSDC

CC(C)c1nc(Nc2cccc(Cl)c2)ccc1C(=O)NCC1CCCC1 [Example 210, 6-(3-Chloro-phenylamino)-N-cyclopentylmethyl-2-isopropyl-nicotinamide]
EC50: < 300 nM | Emax: > 50%

CC(C)c1nc(Nc2cccc(Cl)c2)ccc1C(=O)NCC1CCCCC1 [Example 211, 6-(3-Chloro-phenylamino)-N-cyclohexylmethyl-2-isopropyl-nicotinamide]
EC50: < 300 nM | Emax: > 50%

CC(C)c1nc(Nc2ccc(Cl)cc2Cl)ccc1C(=O)NCC1CCC1 [Example 212, 6-(2,4-Dichloro-phenylamino)-N-cyclobutylmethyl-2-isopropyl-nicotinamide]
EC50: < 300 nM | Emax: > 50%

CC(C)c1nc(Nc2ccc(Cl)cc2Cl)ccc1C(=O)NCC1CCCC1 [Example 213, 6-(2,4-Dichloro-phenylamino)-N-cyclopentylmethyl-2-isopropyl-nicotinamide]
EC50: < 300 nM | Emax: > 50%

CC(C)c1nc(Nc2ccc(Cl)cc2Cl)ccc1C(=O)NCC1CCOCC1 [Example 214, 6-(2,4-Dichloro-phenylamino)-N-(tetrahydro-pyran-4-ylmethyl)-2-isopropyl-nicotinamide]
EC50: < 300 nM | Emax: > 50%

CC(C)c1nc(Nc2ccc(Cl)cc2Cl)ccc1C(=O)NCC1CCS(=O)(=O)C1 (stereo not drawn) [Example 215, 6-(2,4-Dichloro-phenylamino)-N-(1,1-tetrahydrothiophen-3-ylmethyl)-2-isopropyl-nicotinamide]
EC50: < 300 nM | Emax: > 50%

CC(C)c1nc(Nc2cccc(F)c2)ccc1C(=O)NCC1CCC1 [Example 216, 6-(3-Fluoro-phenylamino)-N-cyclobutylmethyl-2-isopropyl-nicotinamide]
EC50: < 300 nM | Emax: > 50%

CC(C)c1nc(Nc2cccc(F)c2)ccc1C(=O)NCC1CCCC1 [Example 217, 6-(3-Fluoro-phenylamino)-N-cyclopentylmethyl-2-isopropyl-nicotinamide]
EC50: < 300 nM | Emax: > 50%

CC(C)c1nc(Nc2cccc(F)c2)ccc1C(=O)NCC1CCOCC1 [Example 218, 6-(3-Fluoro-phenylamino)-N-(tetrahydro-pyran-4-ylmethyl)-2-isopropyl-nicotinamide]
EC50: < 300 nM | Emax: > 50%

CC(C)c1nc(Nc2cccc(F)c2)ccc1C(=O)NCC1CCS(=O)(=O)C1 (stereo not drawn) [Example 219, 6-(3-Fluoro-phenylamino)-N-(1,1-dioxo-tetrahydrothiophen-3-ylmethyl)-2-isopropyl-nicotinamide]
EC50: < 300 nM | Emax: > 50%

Cc1cc(C#N)ccc1Nc1cc(C(C)C)c(C(=O)NCC2CCOCC2)cn1 [Example 220, 6-(4-Cyano-2-methyl-phenylamino)-4-isopropyl-N-(tetrahydro-pyran-4-ylmethyl)-nicotinamide]
EC50: < 300 nM | Emax: > 50%

CC(C)c1cc(Nc2cc(Cl)ccc2C#N)ncc1C(=O)NCC1CCOCC1 [Example 221, 6-(S-Chloro-2-cyano-phenylamino)-4-isopropyl-N-(tetrahydro-pyran-4-ylmethyl)-nicotinamide]
EC50: 300 to 1000 nM | Emax: < 30%

CC(C)c1cc(Nc2cccc(Cl)c2)ncc1C(=O)NCC1CCS(=O)(=O)C1 (stereo not drawn) [Example 223, 6-(3-Chloro-phenylamino)-N-(1,1-dioxo-tetrahydro-1/^6-thiophen-3-ylmethyl)-4-isopropyl-nicotinamide]
EC50: < 300 nM | Emax: > 50%

CC(C)c1cc(Nc2cccc(OC(F)(F)F)c2)ncc1C(=O)NCC1CCC1 [Example 224, N-Cyclobutylmethyl-4-isopropyl-6-(3-trifluoromethoxy-phenylamino)-nicotinamide]
EC50: < 300 nM | Emax: > 50%

Cc1ccc(Br)cc1Nc1cc(C(C)C)c(C(=O)NCC2CCOCC2)cn1 [Example 234, 6-(5-Bromo-2-methyl-phenylamino)-4-isopropyl-N-(tetrahydro-pyran-4-ylmethyl)-nicotinamide]
EC50: < 300 nM | Emax: > 50%

CC(C)c1cc(Nc2cc(F)ccc2Br)ncc1C(=O)NCC1CCOCC1 [Example 235, 6-(2-Bromo-5-fluoro-phenylamino)-4-isopropyl-N-(tetrahydro-pyran-4-ylmethyl)-nicotinamide]
EC50: < 300 nM | Emax: > 50%

CC(C)c1cc(Nc2cc(C(F)(F)F)ccc2F)ncc1C(=O)NCC1CCOCC1 [Example 236, 6-(2-Fluoro-5-trifluoromethyl-phenylamino)-4-isopropyl-N-(tetrahydro-pyran-4-ylmethyl)-nicotinamide]
EC50: < 300 nM | Emax: > 50%

CC(C)c1cc(Nc2cc(C(F)(F)F)ccc2Cl)ncc1C(=O)NCC1CCOCC1 [Example 237, 6-(2-Chloro-5-trifluoromethyl-phenylamino)-4-isopropyl-N-(tetrahydro-pyran-4-ylmethyl)-nicotinamide]
EC50: < 300 nM | Emax: > 50%

CC(C)c1cc(Nc2cc(C(F)(F)F)ccc2Br)ncc1C(=O)NCC1CCOCC1 [Example 238, 6-(2-Bromo-5-trifluoromethyl-phenytamino)-4-isopropyl-N-(tetrahydro-pyran-4-ylmethyl)-nicotinamide]
EC50: < 300 nM | Emax: > 50%

CC(C)c1cc(Nc2ccc(C#N)c(Br)c2)ncc1C(=O)NCC1CCOCC1 [Example 239, 6-(3-Bromo-4-cyano-phenylamino)-4-isopropyl-N-(tetrahydro-pyran-4-ylmethyl)-nicotinamide]
EC50: < 300 nM | Emax: > 50%

CC(C)c1cc(Nc2ccc(OC(F)(F)F)cc2Br)ncc1C(=O)NCC1CCOCC1 [Example 240, 6-(2-Bromo-4-trifluoromethoxy-phenylamino)-4-isopropyl-N-(tetrahydro-pyran-4-ylmethyl)-nicotinamide]
EC50: < 300 nM | Emax: > 50%

Cc1c(Cl)cccc1Nc1cc(C(C)C)c(C(=O)NCC2CCOCC2)cn1 [Example 241, 6-(3-Chloro-2-methyl-phenylamino)-4-isopropyl-N-(tetrahydro-pyran-4-ylmethyl)-nicotinamide]
EC50: < 300 nM | Emax: > 50%

CC(C)c1cc(Nc2cc(F)cc(F)c2)ncc1C(=O)NCC1CCOCC1 [Example 242, 6-(3,5-Difluoro-phenylamino)-4-isopropyl-N-(tetrahydro-pyran-4-ylmethyl)-nicotinamide]
EC50: < 300 nM | Emax: > 50%

CC(C)c1cc(Nc2ccc(F)cc2Cl)ncc1C(=O)NCC1CCOCC1 [Example 243, 6-(2-Chloro-4-fluoro-phenylamino)-4-isopropyl-N-(tetrahydro-pyran-4-ylmethyl)-nicotinamide]
EC50: < 300 nM | Emax: > 50%

Cc1cc(Cl)ccc1Nc1cc(C(C)C)c(C(=O)NCC2CCOCC2)cn1 [Example 244, 6-(4-Chloro-2-methyl-phenylamino)-4-isopropyl-N-(tetrahydro-pyran-4-ylmethyl)-nicotinamide]
EC50: < 300 nM | Emax: > 50%

CC(C)c1cc(Nc2cccc(C(F)(F)F)c2F)ncc1C(=O)NCC1CCCC1 [Example 245, 6-(2-Fluoro-3-trifluoromethyl-phenylamino)-N-cyclopentylmethyl-4-isopropyl-nicotinamide]
EC50: < 300 nM | Emax: > 50%

Cc1cc(Cl)ccc1Nc1cc(C(C)C)c(C(=O)NCC2CCCC2)cn1 [Example 246, 6-(2-Methyl-4-chloro-phenylamino)-N-cyclopentylmethyl-4-isopropyl-nicotinamide]
EC50: < 300 nM | Emax: > 50%
